As a reminder, the IC50 is the concentration that inhibits the measured activity by half.

Molecules are shown by their SMILES. Where two headings read alike, the source gives them in different places. Positions of bridges follow the written chain, without caps; N, C: chain ends. Non-standard residues stand in square brackets, D forms with d. Residues, ends and D or L forms follow the SMILES beside them. N(3-phenylpropyl)Gly = O=C(O)CNCCCc1ccccc1; Cit = NC(=O)NCCC[C@H](N)C(=O)O; Ahp(2) = CCCCC[C@H](N)C(=O)O; NMeNle = CCCC[C@H](NC)C(=O)O; Tle = CC(C)(C)[C@H](N)C(=O)O; NHexGly = CCCCCCNCC(=O)O; Nle = CCCC[C@H](N)C(=O)O; Orn = NCCC[C@H](N)C(=O)O

These results are taken from patent US20240218022A1, “ANTI-VISTA MACROCYCLIC PEPTIDES AND COMPOSITIONS” (BRISTOL-MYERS SQUIBB COMPANY, priority 2022, published 2024).

The target in this test is T1, mouse VISTA (mVISTA) (Mus musculus, UniProt Q9D659).
T1 construct: expressed in transfected cells; host or cells: Human embryonic kidney 293T cells
T1 sequence (Q9D659 33-308): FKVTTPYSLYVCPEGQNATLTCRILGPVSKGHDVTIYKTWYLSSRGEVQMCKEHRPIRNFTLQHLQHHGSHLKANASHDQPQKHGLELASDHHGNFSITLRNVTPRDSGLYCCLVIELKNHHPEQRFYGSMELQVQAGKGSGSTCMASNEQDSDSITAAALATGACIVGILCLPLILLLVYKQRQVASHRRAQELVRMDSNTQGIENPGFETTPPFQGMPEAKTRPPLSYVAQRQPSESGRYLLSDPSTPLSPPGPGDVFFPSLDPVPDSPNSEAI
The experiment in a line: Cell-Based Binding High-Content Assay For mVISTA (HC CBA mVISTA). To be noted: 293T cells expressing mouse VISTA, competition with biotinylated peptide (2 nM). In short, it runs like this:
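Competition of compound with a biotinylated peptide (final 2 nM, 30 min at RT) for binding to mVISTA on 293T cells, run under no-wash or wash (1 h compound preincubation then removal) formats. Readout by Alexa 647–streptavidin imaging on a high-content platform; four-parameter logistic fit gave IC50.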

`CCCCCCN1CC(=O)N[C@@H](Cc2ccc(O)cc2)C(=O)N[C@@H](CCCCC)C(=O)NCC(=O)N[C@@H](CCCNC(=N)N)C(=O)N(C)[C@@H](CCCC)C(=O)N[C@@H](CCCCC)C(=O)N2CCC[C@H]2C(=O)N[C@@H](C(C)C)C(=O)N[C@@H](CO)C(=O)N[C@H](C(=O)NCC(N)=O)CSCC(=O)N[C@@H](Cc2ccccc2)C(=O)N[C@@H](Cc2ccc(O)cc2)C(=O)N[C@@H](CC(=O)O)C1=O` [Example 1079] ({CH2CO}-FYD[NHexGly]Y[Ahp(2)]GR[NMeNle][Ahp(2)]PVSCG-NH2; thioether N-14): the IC50 (read-out: CBA mVISTA IC50) is 0.0246 µM.
The same measure, in the same setting: the result for `CCCCCCN1CC(=O)N[C@@H](Cc2ccc(O)cc2)C(=O)N[C@@H](CC(C)C)C(=O)NCC(=O)N[C@@H](CCCNC(=N)N)C(=O)N(C)[C@@H](CCCC)C(=O)N[C@@H](CCCCC)C(=O)N2CCC[C@H]2C(=O)N[C@@H](C(C)C)C(=O)N[C@@H](CO)C(=O)N[C@H](C(=O)NCC(=O)O)CSCC(=O)N[C@@H](Cc2ccccc2)C(=O)N[C@@H](Cc2ccc(O)cc2)C(=O)N[C@@H](CC(=O)O)C1=O` [Example 1080] ({CH2CO}-FYD[NHexGly]YLGR[NMeNle][Ahp(2)]PVSCG-OH; thioether N-14) reads 0.0186 µM; that for `CCCCCCN1CC(=O)N[C@@H](Cc2ccc(O)cc2)C(=O)N[C@@H](CC(C)C)C(=O)NCC(=O)N[C@@H](CCCNC(=N)N)C(=O)N(C)[C@@H](CCCC)C(=O)N[C@@H](CCCCC)C(=O)N2CCC[C@H]2C(=O)N[C@@H](C(C)C)C(=O)N[C@@H](CO)C(=O)N[C@H](C(=O)NCC(N)=O)CSCC(=O)N[C@@H](Cc2ccccc2)C(=O)N[C@@H](Cc2ccc(O)cc2)C(=O)N[C@@H](CC(=O)O)C1=O` [Example 1081] ({CH2CO}-FYD[NHexGly]YLGR[NMeNle][Ahp(2)]PVSCG-NH2; thioether N-14), 0.0046 µM; that for `CCCCCCN1CC(=O)N[C@@H](Cc2ccc(O)cc2)C(=O)N[C@@H](CCCC)C(=O)N[C@@H](CC(N)=O)C(=O)N[C@@H](CCCNC(N)=O)C(=O)N(C)[C@@H](CCCC)C(=O)N[C@@H](CCCCC)C(=O)N2CCC[C@H]2C(=O)N[C@@H](C(C)C)C(=O)N[C@@H](CC(=O)O)C(=O)N[C@H](C(=O)NCC(=O)O)CSCC(=O)N[C@@H](Cc2ccccc2)C(=O)N[C@@H](Cc2ccc(O)cc2)C(=O)N[C@@H](CC(=O)O)C1=O` [Example 1082] ({CH2CO}-FYD[NHexGly]Y[Nle]N[Cit][NMeNle][Ahp(2)]PVDCG-OH; thioether N-14), 0.0081 µM.
Regarding `CCCCCCN1CC(=O)N[C@@H](Cc2ccc(O)cc2)C(=O)N[C@@H](CCCC)C(=O)N[C@@H](CC(N)=O)C(=O)N[C@@H](CCCNC(=N)N)C(=O)N(C)[C@@H](CCCC)C(=O)N[C@@H](CCCCC)C(=O)N2CCC[C@H]2C(=O)N[C@@H](C(C)C)C(=O)N[C@@H](CC(=O)O)C(=O)N[C@H](C(=O)NCC(=O)O)CSCC(=O)N[C@@H](Cc2ccccc2)C(=O)N[C@@H](Cc2ccc(O)cc2)C(=O)N[C@@H](CC(=O)O)C1=O` [Example 1083] ({CH2CO}-FYD[NHexGly]Y[Nle]NR[NMeNle][Ahp(2)]PVDCG-OH; thioether N-14), the IC50 (read-out: CBA mVISTA IC50) came to 0.0391 µM.
For `CCCCC[C@@H]1NC(=O)[C@H](CCCC)N(C)C(=O)[C@H](CCCN)NC(=O)[C@H](CC(N)=O)NC(=O)[C@H](CC(C)C)NC(=O)[C@H](Cc2ccc(O)cc2)NC(=O)CN(CCCc2ccccc2)C(=O)[C@H](CC(=O)O)NC(=O)[C@H](Cc2ccc(O)cc2)NC(=O)[C@H](Cc2ccccc2)NC(=O)CSC[C@@H](C(=O)NCC(N)=O)NC(=O)[C@H](CO)NC(=O)[C@H](C(C)(C)C)NC(=O)[C@@H]2CCCN2C1=O` [Example 1084] ({CH2CO}-FYD[N(3-phenylpropyl)Gly]YLN[Orn][NMeNle][Ahp(2)]P[Tle]SCG-NH2; thioether N-14), the IC50 (read-out: HC CBA mVISTA IC50) is 0.0378 µM.
Still for that read-out and setting: the result for `CCCCC[C@@H]1NC(=O)[C@H](CCCC)N(C)C(=O)[C@H](CCCN)NC(=O)[C@H](CC(N)=O)NC(=O)[C@H](CC(C)C)NC(=O)[C@H](Cc2ccc(O)cc2)NC(=O)CN(CCCc2ccccc2)C(=O)[C@H](CC(=O)O)NC(=O)[C@H](Cc2ccc(O)cc2)NC(=O)[C@H](Cc2ccccc2)NC(=O)CSC[C@@H](C(=O)NCC(N)=O)NC(=O)[C@H](CO)NC(=O)[C@H](C(C)C)NC(=O)[C@@H]2CCCN2C1=O` [Example 1085] ({CH2CO}-FYD[N(3-phenylpropyl)Gly]YLN[Orn][NMeNle][Ahp(2)]PVSCG-NH2; thioether N-14) reads 0.0318 µM; that for `CCCCC[C@@H]1NC(=O)[C@H](CCCC)N(C)C(=O)[C@H](CCCNC(=N)N)NC(=O)[C@H](CC(N)=O)NC(=O)[C@H](CC(C)C)NC(=O)[C@H](Cc2ccc(O)cc2)NC(=O)CN(CCCc2ccccc2)C(=O)[C@H](CC(=O)O)NC(=O)[C@H](Cc2ccc(O)cc2)NC(=O)[C@H](Cc2ccccc2)NC(=O)CSC[C@@H](C(=O)NCC(N)=O)NC(=O)[C@H](CO)NC(=O)[C@H](C(C)C)NC(=O)[C@@H]2CCCN2C1=O` [Example 1086] ({CH2CO}-FYD[N(3-phenylpropyl)Gly]YLNR[NMeNle][Ahp(2)]PVSCG-NH2; thioether N-14), 0.0407 µM.
Still for that read-out and setting: next, `CCCCC[C@@H]1NC(=O)[C@H](CCCC)N(C)C(=O)[C@H](CCCNC(=N)N)NC(=O)[C@H](CC(N)=O)NC(=O)[C@H](CC(C)C)NC(=O)[C@H](Cc2ccc(O)cc2)NC(=O)CN(CCCc2ccccc2)C(=O)[C@H](CC(=O)O)NC(=O)[C@H](Cc2ccc(O)cc2)NC(=O)[C@H](Cc2ccccc2)NC(=O)CSC[C@@H](C(=O)NCC(N)=O)NC(=O)[C@H](CO)NC(=O)[C@H](C(C)(C)C)NC(=O)[C@@H]2CCCN2C1=O` [Example 1087] ({CH2CO}-FYD[N(3-phenylpropyl)Gly]YLNR[NMeNle][Ahp(2)]P[Tle]SCG-NH2; thioether N-14): 0.0347 µM; `CCCCCCN1CC(=O)N[C@@H](Cc2ccc(O)cc2)C(=O)N[C@@H](CCCCC)C(=O)N[C@@H](CC(N)=O)C(=O)N[C@@H](CCCNC(=N)N)C(=O)N[C@@H](C)C(=O)N[C@@H](CCCCC)C(=O)N2CCC[C@H]2C(=O)N[C@@H](C(C)C)C(=O)N[C@@H](CO)C(=O)N[C@H](C(=O)NCC(N)=O)CSCC(=O)N[C@@H](Cc2ccccc2)C(=O)N[C@@H](Cc2ccc(O)cc2)C(=O)N[C@@H](CC(=O)O)C1=O` [Example 1089] ({CH2CO}-FYD[NHexGly]Y[Ahp(2)]NRA[Ahp(2)]PVSCG-NH2; thioether N-14): 0.0379 µM.
In the case of `CCCCCCN1CC(=O)N[C@@H](Cc2ccc(O)cc2)C(=O)N[C@@H](CCCCC)C(=O)N[C@@H](CC(N)=O)C(=O)N[C@@H](CCCNC(=N)N)C(=O)N[C@@H](C)C(=O)N[C@@H](CCCCC)C(=O)N2CCC[C@H]2C(=O)N[C@@H](C(C)C)C(=O)N[C@@H](CO)C(=O)N[C@H](C(=O)NCC(=O)O)CSCC(=O)N[C@@H](Cc2ccccc2)C(=O)N[C@@H](Cc2ccc(O)cc2)C(=O)N[C@@H](CC(=O)O)C1=O` [Example 1090] ({CH2CO}-FYD[NHexGly]Y[Ahp(2)]NRA[Ahp(2)]PVSCG-OH; thioether N-14), the half-inhibitory concentration (IC50) (read-out: HC CBA mVISTA IC50) came to 0.008 µM.
Still for that read-out and setting: next, `CCCCCCN1CC(=O)N[C@@H](Cc2ccc(O)cc2)C(=O)N[C@@H](CC(C)C)C(=O)NCC(=O)N[C@@H](CCCNC(=N)N)C(=O)N[C@@H](CCCCN)C(=O)N[C@@H](CCCCC)C(=O)N2CCC[C@H]2C(=O)N[C@@H](C(C)C)C(=O)N[C@@H](CO)C(=O)N[C@H](C(=O)NCC(=O)O)CSCC(=O)N[C@@H](Cc2ccccc2)C(=O)N[C@@H](Cc2ccc(O)cc2)C(=O)N[C@@H](CC(=O)O)C1=O` [Example 1091] ({CH2CO}-FYD[NHexGly]YLGRK[Ahp(2)]PVSCG-OH; thioether N-14): 0.0053 µM.
Same read-out and setting: the result for `CCCCCCN1CC(=O)N[C@@H](Cc2ccc(O)cc2)C(=O)N[C@@H](CC(C)C)C(=O)NCC(=O)N[C@@H](CCCNC(=N)N)C(=O)N[C@@H](CCCCN)C(=O)N[C@@H](CCCCC)C(=O)N2CCC[C@H]2C(=O)N[C@@H](C(C)C)C(=O)N[C@@H](CO)C(=O)N[C@H](C(=O)NCC(N)=O)CSCC(=O)N[C@@H](Cc2ccccc2)C(=O)N[C@@H](Cc2ccc(O)cc2)C(=O)N[C@@H](CC(=O)O)C1=O` [Example 1092] ({CH2CO}-FYD[NHexGly]YLGRK[Ahp(2)]PVSCG-NH2; thioether N-14) reads 0.0271 µM; that for `CCCCCCN1CC(=O)N[C@@H](Cc2ccc(O)cc2)C(=O)N[C@@H](CCCCC)C(=O)NCC(=O)N[C@@H](CCCNC(=N)N)C(=O)N[C@@H](Cc2ccc(O)cc2)C(=O)N[C@@H](CCCCC)C(=O)N2CCC[C@H]2C(=O)N[C@@H](C(C)C)C(=O)N[C@@H](CO)C(=O)N[C@H](C(=O)NCC(N)=O)CSCC(=O)N[C@@H](Cc2ccccc2)C(=O)N[C@@H](Cc2ccc(O)cc2)C(=O)N[C@@H](CC(=O)O)C1=O` [Example 1093] ({CH2CO}-FYD[NHexGly]Y[Ahp(2)]GRY[Ahp(2)]PVSCG-NH2; thioether N-14), 0.0404 µM.
Take `CCCCCCN1CC(=O)N[C@@H](Cc2ccc(O)cc2)C(=O)N[C@@H](CC(C)C)C(=O)NCC(=O)N[C@@H](CCCNC(=N)N)C(=O)N[C@@H](Cc2ccc(O)cc2)C(=O)N[C@@H](CCCCC)C(=O)N2CCC[C@H]2C(=O)N[C@@H](C(C)C)C(=O)N[C@@H](CO)C(=O)N[C@H](C(=O)NCC(N)=O)CSCC(=O)N[C@@H](Cc2ccccc2)C(=O)N[C@@H](Cc2ccc(O)cc2)C(=O)N[C@@H](CC(=O)O)C1=O` [Example 1094] ({CH2CO}-FYD[NHexGly]YLGRY[Ahp(2)]PVSCG-NH2; thioether N-14): the half-inhibitory concentration (IC50) (read-out: HC CBA mVISTA IC50) was determined as 0.0349 µM.
